Test system: iHMGEC
Assay: Terminal differentiation of iHMGECs under low oxygen combined with phospholipidosis-inducing drug
Format: cell-based, human
Settings: low oxygen levels combined with drug exposure, 10 μg/ml
Excerpt: This hypoxic effect is associated with a significant rise in the number and size of lysosomes, as well as increased DNase II activity and decreased Lamp-1 expression. These latter changes are consistent with heightened terminal differentiation and holocrine secretion.

SMILES: CC[C@H]1OC(=O)[C@H](C)[C@@H](O[C@H]2C[C@@](C)(OC)[C@@H](O)[C@H](C)O2)[C@H](C)[C@@H](O[C@@H]2O[C@H](C)C[C@H](N(C)C)[C@H]2O)[C@](C)(O)C[C@@H](C)CN(C)[C@H](C)[C@@H](O)[C@]1(C)O [azithromycin]
- hypoxic influence on terminal differentiation: further enhanced

From US11554048B2, “System and method for treating meibomian gland dysfunction” (The Schepens Eye Research Institute, Inc., priority 2018, dated 2023)
